The values that follow come from patent publication US20260207604A1, “COMPOUND AND USE THEREOF” (ONQUALITY PHARMACEUTICALS CHINA LTD., priority 2022, published 2026).

Molecules are shown by their SMILES.

A short description of the data set: Single-dose intravenous and oral pharmacokinetic study in mice. It counts as in vivo, Balb/c mice. The settings on record: mouse; male Balb/c mice, PO 50 mg/kg, plasma. The procedure: Twenty-seven male Balb/c mice were randomly divided into 3 groups, 9 mice in each group. Group 1: mice received an intravenous (IV) dose of Compound 1 at 5 mg/kg with a dosing volume of 5 mL/kg. Blood samples were collected at 0.083, 0.25, 0.5, 1, 2, 4, 6, 8, and 24 hours post-dose using a staggered sampling method. Group 2: mice received an oral (gavage) dose of Compound 1 at 50 mg/kg with a dosing volume of 10 mL/kg. Blood samples were collected at 0.25, 0.5, 1, 2, 4, 6, 8, and 24 hours post-dose using a staggered sampling method. Group 3: mice received an oral (gavage) dose of palbociclib at 50 mg/kg with a dosing volume of 10 mL/kg. Blood samples were collected at 1, 3, 4, 6, 8, 10, 12, and 24 hours post-dose using a staggered sampling method. For each group, 3 samples were collected at each time point. Plasma was separated by centrifugation and stored at −70° C. The concentrations of Compound 1 or palbociclib in plasma were measured using LC-MS/MS.

One may read the AUC(0-t) as exposure summed from dosing to a finite time, without extrapolation to infinity. The term Cmax denotes the highest concentration seen after dosing. By Tmax is commonly meant the time at which the peak concentration occurs. As usually defined, the half-life is the time in which the quantity being followed falls by half. High values mean slow decline, low ones rapid decline. In the case of `CC(=O)c1c(C)c2cnc(Nc3ccc(N4CCNCC4)cn3)nc2n(C2CCCC2)c1=O` [palbociclib, reference compound], the AUC(0-t) was 18300 ng·h/mL, the concentration peaked (Cmax) at 1320 ng/mL, the Tmax was found to be 8 h and the half-life was 7.64 h.
